Source: article PMC9030254, “Target Hopping from Protein Kinases to PXR: Identification of Small-Molecule Protein Kinase Inhibitors as Selective Modulators of Pregnane X Receptor from TüKIC Library” (Cells, 2022)

Experiments:
Experiment in all cases: Kinase profiling
Format in all cases: biochemical
FES = target: T1, FES (Homo sapiens, UniProt P07332)
T1 construct: purchased ProQinase (Freiburg, Germany)
Description: (§1) The analysis was performed by ProQinase (Freiburg, Germany).

CLK1 = target: T2, CLK1 (Homo sapiens, UniProt P49759)
T2 construct: purchased ProQinase (Freiburg, Germany)
Description: as §1

TAOK2 = target: T3, TAOK2 (Homo sapiens, UniProt Q9UL54)
T3 construct: purchased ProQinase (Freiburg, Germany)
T3 sequence (Q9UL54 1-1235): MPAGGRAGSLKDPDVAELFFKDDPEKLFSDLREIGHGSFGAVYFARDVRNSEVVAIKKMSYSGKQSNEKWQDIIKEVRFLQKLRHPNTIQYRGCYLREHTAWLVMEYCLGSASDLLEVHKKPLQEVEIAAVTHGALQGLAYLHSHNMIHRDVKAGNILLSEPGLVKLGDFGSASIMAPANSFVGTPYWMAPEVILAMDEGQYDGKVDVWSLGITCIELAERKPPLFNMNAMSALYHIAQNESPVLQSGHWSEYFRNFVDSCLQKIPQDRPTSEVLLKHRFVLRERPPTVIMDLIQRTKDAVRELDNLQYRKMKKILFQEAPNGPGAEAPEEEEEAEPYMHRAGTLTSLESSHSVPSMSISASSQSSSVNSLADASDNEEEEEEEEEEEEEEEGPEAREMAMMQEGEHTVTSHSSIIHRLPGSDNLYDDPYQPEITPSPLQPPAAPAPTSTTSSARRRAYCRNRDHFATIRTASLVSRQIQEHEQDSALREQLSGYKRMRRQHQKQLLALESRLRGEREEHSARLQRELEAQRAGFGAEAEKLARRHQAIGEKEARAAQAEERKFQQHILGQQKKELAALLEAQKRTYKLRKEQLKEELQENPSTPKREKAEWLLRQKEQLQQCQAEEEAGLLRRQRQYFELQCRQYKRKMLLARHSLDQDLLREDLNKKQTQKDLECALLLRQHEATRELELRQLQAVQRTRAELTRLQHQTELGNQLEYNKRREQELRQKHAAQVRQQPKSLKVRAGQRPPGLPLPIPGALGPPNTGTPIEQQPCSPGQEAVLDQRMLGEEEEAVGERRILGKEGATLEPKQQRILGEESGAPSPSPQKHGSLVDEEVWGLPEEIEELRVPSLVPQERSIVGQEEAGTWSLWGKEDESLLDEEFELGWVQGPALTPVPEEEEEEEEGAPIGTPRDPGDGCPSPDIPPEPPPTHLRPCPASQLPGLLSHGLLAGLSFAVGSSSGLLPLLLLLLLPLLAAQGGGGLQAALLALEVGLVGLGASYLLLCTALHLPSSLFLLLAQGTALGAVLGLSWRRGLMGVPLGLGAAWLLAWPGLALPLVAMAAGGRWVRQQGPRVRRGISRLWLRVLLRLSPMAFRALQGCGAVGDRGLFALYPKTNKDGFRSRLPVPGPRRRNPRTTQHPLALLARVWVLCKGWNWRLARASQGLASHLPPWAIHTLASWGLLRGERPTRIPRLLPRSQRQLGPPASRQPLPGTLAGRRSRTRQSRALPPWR
Description: as §1

SIK3 = target: T4, SIK3 (Homo sapiens, UniProt Q9Y2K2)
T4 construct: purchased ProQinase (Freiburg, Germany)
Description: as §1

TGFBR1 = target: T5, TGFBR1 (Homo sapiens, UniProt P36897)
T5 construct: purchased ProQinase (Freiburg, Germany)
T5 sequence (P36897 34-503): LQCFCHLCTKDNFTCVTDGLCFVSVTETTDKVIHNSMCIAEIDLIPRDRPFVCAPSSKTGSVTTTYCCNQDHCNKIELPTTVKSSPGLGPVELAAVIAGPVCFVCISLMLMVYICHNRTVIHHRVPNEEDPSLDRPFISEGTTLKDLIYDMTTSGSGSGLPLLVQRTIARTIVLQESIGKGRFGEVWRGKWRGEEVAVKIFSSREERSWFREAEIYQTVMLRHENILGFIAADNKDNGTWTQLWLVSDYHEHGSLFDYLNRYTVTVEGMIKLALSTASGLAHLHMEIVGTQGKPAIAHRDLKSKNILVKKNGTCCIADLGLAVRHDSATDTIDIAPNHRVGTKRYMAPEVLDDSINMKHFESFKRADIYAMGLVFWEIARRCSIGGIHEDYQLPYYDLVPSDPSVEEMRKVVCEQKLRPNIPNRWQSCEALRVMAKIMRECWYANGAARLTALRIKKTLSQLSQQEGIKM
Description: as §1

MKNK2 = target: T6, MKNK2 (Homo sapiens, UniProt Q9HBH9)
T6 construct: purchased ProQinase (Freiburg, Germany)
Description: as §1

SYK = target: T7, SYK (Homo sapiens, UniProt P43405)
T7 construct: purchased ProQinase (Freiburg, Germany)
Description: as §1

BRSK1 = target: T8, BRSK1 (Homo sapiens, UniProt Q8TDC3)
T8 construct: purchased ProQinase (Freiburg, Germany)
T8 sequence (Q8TDC3 1-778): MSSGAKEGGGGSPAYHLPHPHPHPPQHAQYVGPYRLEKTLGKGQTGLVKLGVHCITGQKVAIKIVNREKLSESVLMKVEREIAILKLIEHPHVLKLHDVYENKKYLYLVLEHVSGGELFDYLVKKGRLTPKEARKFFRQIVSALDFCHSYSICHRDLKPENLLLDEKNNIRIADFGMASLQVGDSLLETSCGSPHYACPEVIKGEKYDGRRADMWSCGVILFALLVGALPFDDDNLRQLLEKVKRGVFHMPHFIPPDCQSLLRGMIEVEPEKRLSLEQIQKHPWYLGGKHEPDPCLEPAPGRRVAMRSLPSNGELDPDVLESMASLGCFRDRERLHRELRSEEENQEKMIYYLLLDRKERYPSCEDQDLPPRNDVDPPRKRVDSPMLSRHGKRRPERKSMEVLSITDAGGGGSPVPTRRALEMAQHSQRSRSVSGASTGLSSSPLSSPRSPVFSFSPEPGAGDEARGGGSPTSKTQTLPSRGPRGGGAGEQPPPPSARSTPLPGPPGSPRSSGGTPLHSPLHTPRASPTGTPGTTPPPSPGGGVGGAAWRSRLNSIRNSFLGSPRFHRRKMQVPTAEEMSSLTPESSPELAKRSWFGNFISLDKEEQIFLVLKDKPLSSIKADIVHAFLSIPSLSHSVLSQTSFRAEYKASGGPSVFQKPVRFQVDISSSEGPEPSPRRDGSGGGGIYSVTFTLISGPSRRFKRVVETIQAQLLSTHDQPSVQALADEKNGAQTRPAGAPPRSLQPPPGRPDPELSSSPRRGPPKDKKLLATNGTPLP
Description: as §1

T6 sequence (Q9HBH9 whole entry): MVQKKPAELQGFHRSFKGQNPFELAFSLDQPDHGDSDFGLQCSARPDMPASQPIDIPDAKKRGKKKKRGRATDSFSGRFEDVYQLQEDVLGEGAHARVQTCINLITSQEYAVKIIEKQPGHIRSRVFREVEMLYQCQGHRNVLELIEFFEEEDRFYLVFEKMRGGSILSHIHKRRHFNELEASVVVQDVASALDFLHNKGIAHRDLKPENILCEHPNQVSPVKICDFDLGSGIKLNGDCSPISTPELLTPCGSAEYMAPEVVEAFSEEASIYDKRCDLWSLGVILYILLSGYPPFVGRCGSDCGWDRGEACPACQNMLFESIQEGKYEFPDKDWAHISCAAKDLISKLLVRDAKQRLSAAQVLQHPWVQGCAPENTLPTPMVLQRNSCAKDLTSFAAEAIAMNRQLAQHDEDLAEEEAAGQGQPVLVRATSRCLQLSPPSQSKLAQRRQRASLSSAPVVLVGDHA
T4 sequence (Q9Y2K2 whole entry): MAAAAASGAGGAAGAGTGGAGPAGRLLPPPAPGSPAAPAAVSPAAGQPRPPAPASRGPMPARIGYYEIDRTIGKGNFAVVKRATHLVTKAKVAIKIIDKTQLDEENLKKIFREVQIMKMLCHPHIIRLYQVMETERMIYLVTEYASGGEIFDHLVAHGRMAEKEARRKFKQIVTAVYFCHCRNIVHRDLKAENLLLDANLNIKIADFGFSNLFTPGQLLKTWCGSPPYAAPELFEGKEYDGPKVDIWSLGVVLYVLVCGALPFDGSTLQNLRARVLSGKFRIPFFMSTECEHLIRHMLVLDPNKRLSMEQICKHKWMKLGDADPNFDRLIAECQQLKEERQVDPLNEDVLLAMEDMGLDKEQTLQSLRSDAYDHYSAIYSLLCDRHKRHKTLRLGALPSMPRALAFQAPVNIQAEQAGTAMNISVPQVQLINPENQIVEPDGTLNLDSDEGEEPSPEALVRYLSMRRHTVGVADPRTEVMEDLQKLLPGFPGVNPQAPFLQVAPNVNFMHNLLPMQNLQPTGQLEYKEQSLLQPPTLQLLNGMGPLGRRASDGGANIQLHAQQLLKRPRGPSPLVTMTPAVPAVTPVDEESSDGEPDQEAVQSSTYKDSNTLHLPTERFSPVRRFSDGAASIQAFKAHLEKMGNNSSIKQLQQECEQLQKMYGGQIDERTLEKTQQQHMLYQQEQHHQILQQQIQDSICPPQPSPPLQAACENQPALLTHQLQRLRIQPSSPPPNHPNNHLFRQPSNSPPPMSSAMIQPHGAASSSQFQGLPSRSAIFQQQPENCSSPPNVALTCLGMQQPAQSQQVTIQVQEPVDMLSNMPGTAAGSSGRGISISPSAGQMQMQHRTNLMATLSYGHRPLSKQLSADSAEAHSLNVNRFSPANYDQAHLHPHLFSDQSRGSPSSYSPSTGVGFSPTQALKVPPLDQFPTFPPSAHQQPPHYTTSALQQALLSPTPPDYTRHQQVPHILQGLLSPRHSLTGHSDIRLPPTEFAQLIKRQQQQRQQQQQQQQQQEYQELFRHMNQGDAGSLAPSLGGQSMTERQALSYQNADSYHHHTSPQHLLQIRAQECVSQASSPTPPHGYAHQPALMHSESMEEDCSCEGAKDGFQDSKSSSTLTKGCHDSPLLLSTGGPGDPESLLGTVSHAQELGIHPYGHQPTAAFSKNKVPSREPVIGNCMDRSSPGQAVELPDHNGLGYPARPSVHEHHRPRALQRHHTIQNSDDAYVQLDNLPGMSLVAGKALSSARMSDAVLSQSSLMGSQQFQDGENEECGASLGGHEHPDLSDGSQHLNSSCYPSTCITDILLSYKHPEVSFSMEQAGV
T1 sequence (P07332 whole entry): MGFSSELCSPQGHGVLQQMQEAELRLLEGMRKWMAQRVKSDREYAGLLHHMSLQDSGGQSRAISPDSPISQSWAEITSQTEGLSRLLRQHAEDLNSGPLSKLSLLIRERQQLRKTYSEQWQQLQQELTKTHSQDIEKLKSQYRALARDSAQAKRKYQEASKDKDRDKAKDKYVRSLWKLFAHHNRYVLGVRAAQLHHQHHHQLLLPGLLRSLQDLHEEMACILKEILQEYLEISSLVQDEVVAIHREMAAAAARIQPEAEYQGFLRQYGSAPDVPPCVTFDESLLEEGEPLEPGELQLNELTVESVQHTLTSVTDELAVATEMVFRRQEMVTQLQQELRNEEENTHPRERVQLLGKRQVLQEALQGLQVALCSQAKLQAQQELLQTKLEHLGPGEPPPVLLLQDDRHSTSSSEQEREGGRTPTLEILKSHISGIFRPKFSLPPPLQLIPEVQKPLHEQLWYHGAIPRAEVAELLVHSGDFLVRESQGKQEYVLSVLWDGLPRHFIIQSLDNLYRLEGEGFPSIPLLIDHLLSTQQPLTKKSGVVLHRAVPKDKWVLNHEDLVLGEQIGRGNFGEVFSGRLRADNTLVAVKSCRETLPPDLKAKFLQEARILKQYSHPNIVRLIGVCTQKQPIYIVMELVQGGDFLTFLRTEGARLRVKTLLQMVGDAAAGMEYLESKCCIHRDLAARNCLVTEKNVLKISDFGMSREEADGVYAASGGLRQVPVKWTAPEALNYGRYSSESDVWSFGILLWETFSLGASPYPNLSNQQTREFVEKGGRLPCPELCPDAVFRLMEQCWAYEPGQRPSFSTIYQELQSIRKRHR
T2 sequence (P49759 whole entry): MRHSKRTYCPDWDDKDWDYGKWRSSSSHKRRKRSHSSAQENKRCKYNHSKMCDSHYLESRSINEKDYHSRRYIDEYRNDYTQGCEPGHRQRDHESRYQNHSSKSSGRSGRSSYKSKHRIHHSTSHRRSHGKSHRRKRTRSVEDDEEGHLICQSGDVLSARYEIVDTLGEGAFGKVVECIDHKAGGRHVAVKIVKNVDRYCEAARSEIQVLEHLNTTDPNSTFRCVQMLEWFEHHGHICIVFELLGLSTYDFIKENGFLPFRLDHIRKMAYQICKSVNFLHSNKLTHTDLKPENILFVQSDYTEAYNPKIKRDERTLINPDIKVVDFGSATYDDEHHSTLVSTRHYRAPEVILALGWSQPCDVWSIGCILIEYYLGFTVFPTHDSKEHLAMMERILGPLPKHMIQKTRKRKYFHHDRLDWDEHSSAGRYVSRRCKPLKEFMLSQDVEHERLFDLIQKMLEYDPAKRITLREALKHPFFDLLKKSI

O=C(Cc1ccccc1)Nc1ccc(F)c(Nc2ccc3c(c2)CCCCC3=O)c1 [Compound 100]
Residual activity (FES; 1.0E-05 M): 67 % of control | Residual activity (FES; 1.0E-06 M): 81 % of control | Residual activity (CLK1; 1.0E-05 M): 79 % of control | Residual activity (CLK1; 1.0E-06 M): 99 % of control | Residual activity (TAOK2; 1.0E-05 M): 97 % of control | Residual activity (TAOK2; 1.0E-06 M): 90 % of control | Residual activity (SIK3; 1.0E-05 M): 87 % of control | Residual activity (SIK3; 1.0E-06 M): 95 % of control | Residual activity (TGFBR1; 1.0E-05 M): 88 % of control | Residual activity (TGFBR1; 1.0E-06 M): 95 % of control | Residual activity (MKNK2; 1.0E-05 M): 115 % of control | Residual activity (MKNK2; 1.0E-06 M): 112 % of control | Residual activity (SYK; 1.0E-05 M): 89 % of control | Residual activity (SYK; 1.0E-06 M): 105 % of control | Residual activity (BRSK1; 1.0E-05 M): 91 % of control | Residual activity (BRSK1; 1.0E-06 M): 101 % of control

O=C(Nc1ccc(F)c(Nc2ccc3c(c2)CCCCC3=O)c1)c1cccc(F)c1 [Compound 109]
Residual activity (FES; 1.0E-05 M): 90 % of control | Residual activity (FES; 1.0E-06 M): 79 % of control | Residual activity (CLK1; 1.0E-05 M): 96 % of control | Residual activity (CLK1; 1.0E-06 M): 105 % of control | Residual activity (TAOK2; 1.0E-05 M): 108 % of control | Residual activity (TAOK2; 1.0E-06 M): 104 % of control | Residual activity (SIK3; 1.0E-05 M): 99 % of control | Residual activity (SIK3; 1.0E-06 M): 96 % of control | Residual activity (TGFBR1; 1.0E-05 M): 91 % of control | Residual activity (TGFBR1; 1.0E-06 M): 88 % of control | Residual activity (MKNK2; 1.0E-05 M): 107 % of control | Residual activity (MKNK2; 1.0E-06 M): 104 % of control | Residual activity (SYK; 1.0E-05 M): 94 % of control | Residual activity (SYK; 1.0E-06 M): 95 % of control | Residual activity (BRSK1; 1.0E-05 M): 92 % of control | Residual activity (BRSK1; 1.0E-06 M): 92 % of control
